According to patent US10286504B2, “Synthesis of paracetamol (acetaminophen) from biomass-derived p-hydroxybenzamide” (Wisconsin Alumni Research Foundation, priority 2017, dated 2019):
Converted amounts (≈) assume the structure as drawn.

Assay: solubility of acetaminophen in recrystallisation solvent (50% water and 50% methanol)
Assay type: physicochemical
Details: aqueous with cosolvent or surfactant or cyclodextrin; solvent mixture of 50% water and 50% methanol by volume, heated to near boiling
Procedure: Heat the reaction mixture at about 115° C. with stirring for about 10 minutes to complete the reaction. Once complete, cool the mixture thoroughly in an ice bath for 15-20 minutes and collect the crystals by vacuum filtration on a Hirsch funnel. To decolorize the crude product, dissolve 0.2 g of sodium dithionite (sodium hydrosulfite) in 1.5 mL of water in a 5-mL conical vial. Add the crude acetaminophen to the vial. Heat the mixture at about 100° C. for 15 minutes, with occasional stirring. Cool the mixture to precipitate the decolorized acetaminophen. To purify the decolorized product, dissolve the material in a solvent mixture composed of 50% water and 50% methanol by volume, heated to boiling. The solubility of acetaminophen in the near-boiling solvent is about 0.2 g/mL. Cool the solution to precipitate the acetaminophen.

solubility: ~200 mg/mL (≈ 1320 mM)
Compound: CC(=O)Nc1ccc(O)cc1 [acetaminophen, N-acetyl-p-aminophenol]
